Earlier results in US20050106735A1, “COMPOSITON FOR NON-TOXIC, NON-HAZARDOUS, AND ENVIRONMENTALLY FRIENDLY HUMIDITY-INDICATING AGENT AND ITS APPLICATION” (GP&E AMERICA, LLC, priority 2004, published 2005).

What was measured:
Rat = conditions: oral

SMILES	Concentration at which the substance may cause cancer by inhalation (Commission Directive 2004/73/EC) [%]	European Union carcinogen classification (Council Directive 67/548/EEC)	Toxicity (ORL-RAT LD50) (Rat) [mg/kg]	Toxicity to aquatic organisms (aquatic organisms)
[Cl][Co][Cl] [Cobalt Chloride]	≥ 0.01	category 2 carcinogen	80	–
[Cl][Cu][Cl] [Copper Chloride]	–	–	584	–
[Cl-].[Cl-].[Mg+2] [Magnesium Chloride]	–	–	8100	–
[Cl-].[Na+] [Sodium Chloride]	–	–	3000	–
[Cl-].[Cl-].[Zn+2] [Zinc Chloride]	–	–	350	very toxic to aquatic organisms
